{"source": "patent US20090298781A1", "about": "“COMPOUNDS FOR THE INHIBITION OF APOPTOSIS” (CONSEJO SUPERIOR DE, priority 2005, published 2009)", "assay_type_in_all_cases": "cell-based", "key": {"Saos-2 cell line": {"system": "Saos-2 cell line", "assay": "MTT assay, toxicity (cell viability), Saos-2", "experimental": "(§1) The MTT assay measures cell proliferation as well as reduction in cell viability when metabolic events lead to apoptosis or necrosis. It can also be used to assess the rate of survival of a given cell line when it is incubated in the presence of xenobiotics. The reduction of tetrazolium salts is accepted as a reliable way to analyse cell proliferation. The yellow tetrazolium MTT (3-(4,5-dimethylthiazolyl-2)-2,5-diphenyltetrazolium bromide) is reduced by metabolically active cells and results in the intracellular formation of purple formazan that can be spectrophotometrically measured after solubilisation with DMSO.\n(§2) The MTT assay was used in this invention to assess the toxicity of compounds at different concentrations. To analyse their potential impairment in cell viability, compounds were added to Saos-2 and U937 cell lines at different concentrations and incubated at different times. Results are expressed by percentage cell viability."}, "U937 cell line": {"system": "U937 cell line", "assay": "MTT assay, toxicity (cell viability), U937", "experimental": "as §1, §2"}, "Caspase activity, HeLa": {"system": "Caspase activity, HeLa", "assay": "Caspase inhibition assay, HeLa", "settings": "Homo sapiens, 5 μM"}, "Caspase activity, U2-OS": {"system": "Caspase activity, U2-OS", "assay": "Caspase inhibition assay, U2-OS", "settings": "Homo sapiens, U2OS, 5 μM"}, "[1]": {"system": "Caspase activity, U937 cell extracts", "assay": "Caspase inhibition assay, U937 cell extracts", "settings": "Homo sapiens, U-937, 5 μM", "experimental": "The time-dependent inhibition of caspase induced by the compounds described in this invention was analysed. […] Caspase activity was assayed using Saos-2 or U937 cell extracts and Ac-DEVD-afc (N-acetyl-Asp-Glu-Val-Asp-afc(7-amino-4-trifluoromethyl coumarin)) as substrate (20 μM). Caspase activity was continuously monitored by the liberation of fluorescent afc using a Cytofluor 4000 fluorimeter (excitation 400 nm; emission 508 nm) for 1 hour. The effect of the compounds on the caspase activity was expressed as the percentage of inhibition in the fluorescence signal of treated cells vs. the non-treated cells (control)."}}, "data": [{"smiles": "CCCCN(CC(N)=O)C(=O)C1CC(=O)N(CCc2ccc(Cl)cc2Cl)CC(=O)N1CCC(c1ccccc1)c1ccccc1", "note": "(centres unmarked) [I.11, 1-[2-(2,4-Dichloro-phenyl)ethyl]-4-(3,3-diphenylpropyl)-3,7-dioxo[1,4]diazepane-5-carboxylic acid butyl-carbamoylmethylamide]", "values": [{"measurement": "% Cell viability", "setting": "Saos-2 cell line; Saos-2, 24 h, 1 μM", "result": 100, "unit": "%"}, {"measurement": "% Cell viability", "setting": "Saos-2 cell line; Saos-2, 24 h, 5 μM", "result": 98, "unit": "%"}, {"measurement": "% Cell viability", "setting": "Saos-2 cell line; Saos-2, 24 h, 10 μM", "result": 82, "unit": "%"}, {"measurement": "% Cell viability", "setting": "Saos-2 cell line; Saos-2, 48 h, 1 μM", "result": 100, "unit": "%"}, {"measurement": "% Cell viability", "setting": "Saos-2 cell line; Saos-2, 48 h, 5 μM", "result": 91, "unit": "%"}, {"measurement": "% Cell viability", "setting": "Saos-2 cell line; Saos-2, 48 h, 10 μM", "result": 74, "unit": "%"}, {"measurement": "% Cell viability", "setting": "U937 cell line; U937, 24 h, 1 μM", "result": 100, "unit": "%"}, {"measurement": "% Cell viability", "setting": "U937 cell line; U937, 24 h, 5 μM", "result": 95, "unit": "%"}, {"measurement": "% Cell viability", "setting": "U937 cell line; U937, 24 h, 10 μM", "result": 79, "unit": "%"}, {"measurement": "% Cell viability", "setting": "U937 cell line; U937, 48 h, 1 μM", "result": 98, "unit": "%"}, {"measurement": "% Cell viability", "setting": "U937 cell line; U937, 48 h, 5 μM", "result": 89, "unit": "%"}, {"measurement": "% Cell viability", "setting": "U937 cell line; U937, 48 h, 10 μM", "result": 75, "unit": "%"}, {"measurement": "inhibition at 5 µM", "setting": "Caspase activity, HeLa; 24 h", "result": 14, "unit": "%"}, {"measurement": "inhibition at 5 µM", "setting": "Caspase activity, HeLa; 48 h", "result": 0, "unit": "%"}, {"measurement": "inhibition at 5 µM", "setting": "Caspase activity, HeLa; 72 h", "result": 62, "unit": "%"}, {"measurement": "inhibition at 5 µM", "setting": "Caspase activity, U2-OS; 24 h", "result": 0, "unit": "%"}, {"measurement": "inhibition at 5 µM", "setting": "Caspase activity, U2-OS; 48 h", "result": 31, "unit": "%"}, {"measurement": "inhibition at 5 µM", "setting": "Caspase activity, U2-OS; 72 h", "result": 50, "unit": "%"}, {"measurement": "inhibition at 5 µM", "setting": "[1]; U937, 24 h", "result": 11, "unit": "%"}, {"measurement": "inhibition at 5 µM", "setting": "[1]; U937, 48 h", "result": 0, "unit": "%"}, {"measurement": "inhibition at 5 µM", "setting": "[1]; U937, 72 h", "result": 4, "unit": "%"}]}, {"smiles": "NC(=O)CN(C(=O)C1CC(=O)N(CCc2ccc(Cl)cc2Cl)CC(=O)N1CCC(c1ccccc1)c1ccccc1)C1CC1", "note": "(centres unmarked) [I.2, 1-[2-(2,4-Dichlorophenyl)ethyl]-4-(3,3-diphenylpropyl)-3,7-dioxo[1,4]diazepane-5-carboxylic acid carbamoylmethylcyclopropylamide]", "values": [{"measurement": "% Cell viability", "setting": "Saos-2 cell line; Saos-2, 24 h, 1 μM", "result": 100, "unit": "%"}, {"measurement": "% Cell viability", "setting": "Saos-2 cell line; Saos-2, 24 h, 5 μM", "result": 99, "unit": "%"}, {"measurement": "% Cell viability", "setting": "Saos-2 cell line; Saos-2, 24 h, 10 μM", "result": 99, "unit": "%"}, {"measurement": "% Cell viability", "setting": "Saos-2 cell line; Saos-2, 48 h, 1 μM", "result": 100, "unit": "%"}, {"measurement": "% Cell viability", "setting": "Saos-2 cell line; Saos-2, 48 h, 5 μM", "result": 100, "unit": "%"}, {"measurement": "% Cell viability", "setting": "Saos-2 cell line; Saos-2, 48 h, 10 μM", "result": 91, "unit": "%"}, {"measurement": "% Cell viability", "setting": "U937 cell line; U937, 24 h, 1 μM", "result": 100, "unit": "%"}, {"measurement": "% Cell viability", "setting": "U937 cell line; U937, 24 h, 5 μM", "result": 100, "unit": "%"}, {"measurement": "% Cell viability", "setting": "U937 cell line; U937, 24 h, 10 μM", "result": 97, "unit": "%"}, {"measurement": "% Cell viability", "setting": "U937 cell line; U937, 48 h, 1 μM", "result": 100, "unit": "%"}, {"measurement": "% Cell viability", "setting": "U937 cell line; U937, 48 h, 5 μM", "result": 99, "unit": "%"}, {"measurement": "% Cell viability", "setting": "U937 cell line; U937, 48 h, 10 μM", "result": 83, "unit": "%"}, {"measurement": "inhibition at 5 µM", "setting": "Caspase activity, HeLa; 24 h", "result": 1, "unit": "%"}, {"measurement": "inhibition at 5 µM", "setting": "Caspase activity, HeLa; 48 h", "result": 46, "unit": "%"}, {"measurement": "inhibition at 5 µM", "setting": "Caspase activity, HeLa; 72 h", "result": 59, "unit": "%"}, {"measurement": "inhibition at 5 µM", "setting": "Caspase activity, U2-OS; 24 h", "result": 0, "unit": "%"}, {"measurement": "inhibition at 5 µM", "setting": "Caspase activity, U2-OS; 48 h", "result": 54, "unit": "%"}, {"measurement": "inhibition at 5 µM", "setting": "Caspase activity, U2-OS; 72 h", "result": 27, "unit": "%"}, {"measurement": "inhibition at 5 µM", "setting": "[1]; U937, 24 h", "result": 0, "unit": "%"}, {"measurement": "inhibition at 5 µM", "setting": "[1]; U937, 48 h", "result": 3, "unit": "%"}, {"measurement": "inhibition at 5 µM", "setting": "[1]; U937, 72 h", "result": 0, "unit": "%"}]}, {"smiles": "NC(=O)CN(CCc1ccc(F)cc1)C(=O)C1CC(=O)N(CCc2ccc(Cl)cc2Cl)CC(=O)N1CCC(c1ccccc1)c1ccccc1", "note": "(centres unmarked) [I.10, 1-[2-(2,4-Dichlorophenyl)ethyl]-4-(3,3-diphenylpropyl)-3,7-dioxo[1,4]diazepane-5-carboxylic acid carbamoylmethyl[2-(4-fluorophenyl)ethyl]amide]", "values": [{"measurement": "% Cell viability", "setting": "Saos-2 cell line; Saos-2, 24 h, 1 μM", "result": 76, "unit": "%"}, {"measurement": "% Cell viability", "setting": "Saos-2 cell line; Saos-2, 24 h, 5 μM", "result": 100, "unit": "%"}, {"measurement": "% Cell viability", "setting": "Saos-2 cell line; Saos-2, 24 h, 10 μM", "result": 91, "unit": "%"}, {"measurement": "% Cell viability", "setting": "Saos-2 cell line; Saos-2, 48 h, 1 μM", "result": 100, "unit": "%"}, {"measurement": "% Cell viability", "setting": "Saos-2 cell line; Saos-2, 48 h, 5 μM", "result": 100, "unit": "%"}, {"measurement": "% Cell viability", "setting": "Saos-2 cell line; Saos-2, 48 h, 10 μM", "result": 100, "unit": "%"}, {"measurement": "% Cell viability", "setting": "U937 cell line; U937, 24 h, 1 μM", "result": 96, "unit": "%"}, {"measurement": "% Cell viability", "setting": "U937 cell line; U937, 24 h, 5 μM", "result": 99, "unit": "%"}, {"measurement": "% Cell viability", "setting": "U937 cell line; U937, 24 h, 10 μM", "result": 89, "unit": "%"}, {"measurement": "% Cell viability", "setting": "U937 cell line; U937, 48 h, 1 μM", "result": 100, "unit": "%"}, {"measurement": "% Cell viability", "setting": "U937 cell line; U937, 48 h, 5 μM", "result": 98, "unit": "%"}, {"measurement": "% Cell viability", "setting": "U937 cell line; U937, 48 h, 10 μM", "result": 99, "unit": "%"}, {"measurement": "inhibition at 5 µM", "setting": "Caspase activity, HeLa; 24 h", "result": 1, "unit": "%"}, {"measurement": "inhibition at 5 µM", "setting": "Caspase activity, HeLa; 48 h", "result": 6, "unit": "%"}, {"measurement": "inhibition at 5 µM", "setting": "Caspase activity, U2-OS; 24 h", "result": 0, "unit": "%"}, {"measurement": "inhibition at 5 µM", "setting": "Caspase activity, U2-OS; 48 h", "result": 22, "unit": "%"}, {"measurement": "inhibition at 5 µM", "setting": "Caspase activity, U2-OS; 72 h", "result": 64, "unit": "%"}, {"measurement": "inhibition at 5 µM", "setting": "[1]; U937, 24 h", "result": 0, "unit": "%"}, {"measurement": "inhibition at 5 µM", "setting": "[1]; U937, 48 h", "result": 5, "unit": "%"}, {"measurement": "inhibition at 5 µM", "setting": "[1]; U937, 72 h", "result": 2, "unit": "%"}]}]}
